Assays:
Assay type in all cases: cell-based
[1] = system: ERα+ breast cancer cell lines in 3D cultures; assay: 3D culture cancer cell proliferation; details: ~1 μM
Text: (§1) Approximately 80% of breast cancers express estrogen receptor alpha (ERα, ESR1) which drives cancer progression. […] (Z)-Endoxifen (ENDX), an active metabolite of tamoxifen, is a potent orally bioavailable selective estrogen receptor modulator with a favorable safety profile now under development for breast health applications. Its synthesis yields endoxifen-related byproduct new chemical entities (NCE), including Compound 7b, Compound 7a, Compound 5b and Compound 5a. This study compared the anti-estrogenic effects of these compounds to (Z)-endoxifen in ERα+ breast cancer cell lines (MCF7, T47D, UCD12), including those with ESR1 mutations (Y537S, D538G) linked to endocrine resistance.

[2] = system: T47D cancer cells; assay: Cell cycle progression assay; details: higher concentration (2.5, 5 μM)
Protocol: This example covers cell cycle progression assays with endoxifen and multiple endoxifen-related compounds on T47D cancer cells. FIGS. 63A-G are plots that show absolute cell counts for cells in different cell cycle phases (G1 through S; G1; and S, G2, and M) following treatment with vehicle (DMSO) or 1.25 μM endoxifen, Compound 7b, Compound 7a, Compound 5b, Compound 5a, and Compound 3, respectively. FIGS. 64A-G are plots that show percent cell counts for cells in different cell cycle phases following treatment with vehicle or 1.25 μM endoxifen, Compound 7b, Compound 7a, Compound 5b, Compound 5a, and Compound 3, respectively. FIGS. 65A-G are plots that show absolute cell counts for cells in different cell cycle phases following treatment with vehicle or 2.5 μM endoxifen, Compound 7b, Compound 7a, Compound 5b, Compound 5a, and Compound 3, respectively. FIGS. 66A-G are plots that show percent cell counts for cells in different cell cycle phases following treatment with vehicle or 2.5 μM endoxifen, Compound 7b, Compound 7a, Compound 5b, Compound 5a, and Compound 3, respectively. FIGS. 67A-G are plots that show absolute cell counts for cells in different cell cycle phases following treatment with vehicle or 5 μM endoxifen, Compound 7b, Compound 7a, Compound 5b, Compound 5a, and Compound 3, respectively. […]

[3] = system: ERα+ breast cancer cell lines; assay: Cell cycle arrest, Example 29
Text: as §1

[4] = system: UCD12 cells; assay: 2D culture proliferation, UCD12; details: for anti-proliferative activity compared with (Z)-endoxifen: estrogen-deficient conditions
Text: as §1

[5] = system: estrogen-induced and ERα-mediated activation of an estrogen response element (ERE) luciferase reporter construct in ER+ T47D cells; assay: Luciferase (ERE reporter) agonist/antagonist assay, ER+ cells
[6] = system: T47D cells; assay: 2D culture proliferation, T47D
Text: as §1

[7] = system: MCF7 cells; assay: Caspase-3/7 apoptosis assay, MCF7; details: 1.25, 2.5, 5 μM
Text: This example covers anti-invasion, apoptosis, and toxicity assays for various endoxifen-related compounds against multiple cancer cell lines. FIGS. 90A-F are plots that summarize results of proliferation assays for multiple cancer cell lines (MCF7, T47D, UCD4, and UCD12) in the presence of varying doses of endoxifen and multiple endoxifen-related compounds. FIGS. 91A-C are plots that summarize results of wound confluence measurements from scratch wound assays on T47D cells in the presence of 1.25 μM (FIG. 91A), 2.5 μM (FIG. 91B), and 5 μM (FIG. 91C) endoxifen and multiple endoxifen-related compounds. FIGS. 92A-C are plots that summarize results of wound density measurements from scratch wound assays on T47D cells in the presence of 1.25 μM (FIG. 92A), 2.5 μM (FIG. 92B), and 5 μM (FIG. 92C) endoxifen and multiple endoxifen-related compounds. FIGS. 93A-C are plots that summarize results of wound confluence measurements from scratch wound assays on MCF7 cells in the presence of 1.25 μM (FIG. 93A), 2.5 μM (FIG. 93B), and 5 μM (FIG. 93C) endoxifen and multiple endoxifen-related compounds. FIGS. 94A-C are plots that summarize results of wound density measurements from scratch wound assays on MCF7 cells in the presence of 1.25 μM (FIG. 94A), 2.5 μM (FIG. 94B), and 5 μM (FIG. 94C) endoxifen and multiple endoxifen-related compounds. […]

[8] = system: MCF7 cells; assay: Apoptosis induction, MCF7, Example 29; details: 1-5 μM; p<0.0001 vs. vehicle; p<0.0001 vs. (Z)-endoxifen
[9] = system: T47D cells; assay: Crystal violet cell viability assay, T47D
Protocol: This example covers the cell toxicities of endoxifen and various endoxifen-related compounds. The toxicities of these compounds were measured using crystal violet cell viabilities assays per the protocols outlined in Feoktistova et al., Cold Spring Harb Protoc., 2016; 4 (PMID: 27037069). This assay utilizes crystal violet, which is a triarylmethane dye that binds to ribose type molecules such as DNA in nuclei. The amount of crystal violet staining is proportional to the cell biomass that is attached to the plate and thus this cell biomass can be used to infer levels of cell viability and cytotoxicity in control/experimental conditions. […]
FIGS. 34-39 summarize crystal violet assays with endoxifen (top-left plot in each figure), Compound 7b (top-middle plot in each figure), Compound 7a (top-right plot in each figure), Compound 5b (bottom-left plot in each figure), Compound 5a (bottom-middle plot in each figure), and Compound 3 (bottom-right plot in each figure). Each individual plot provides normalized absorbance (corresponding to cell concentration) over 25 nM to 5 μM concentration ranges, with the rightmost entry in each plot corresponding to vehicle treatment. […]

[10] = system: T47D cells; assay: Apoptosis induction, T47D, Example 29; details: p<0.0001 vs. vehicle
[11] = system: ERα+ breast cancer cell lines; assay: RT-qPCR analysis; details: 0.1 μM
[12] = 2D cultures, estrogen-containing media

Row | SMILES | potency in 3D cultures, ranking [1] | cell cycle inhibition compared with endoxifen [2] | G1 cell cycle arrest [3] | anti-proliferative activity compared with (Z)-endoxifen [4] | agonist or antagonist behavior (luciferase assay) ([5]; T47D cell lines, FIGS. 72-74) | anti-proliferative effect, ranking [6, 12] | potency at inducing the apoptosis of MCF7 cells [7] | apoptosis induction in MCF7 cells [8] | activity against T47D cells compared with endoxifen ([9]; micromolar concentrations (FIG. 41)) | activity against T47D cells compared with endoxifen ([9]; sub-100 nanomolar concentrations (FIG. 41)) | anti-proliferative effect, ranking [4, 12] | anti-proliferative effects in ER+ cells compared with endoxifen ([5]; CSS+E2 media) | anti-proliferative activity compared with (Z)-endoxifen ([6]; estrogen-deficient conditions) | apoptosis induction in T47D cells [10] | RT-qPCR analysis, potency ranking [11]
1 | CC/C(=C(\c1ccc(O)cc1)c1ccc(OCC[N+](C)(C)C)cc1)c1ccccc1 [Compound 5a] | comparable, superior potency | slightly lower cell cycle inhibition activity than endoxifen | most effective | more effective | strong antagonistic behavior | strongest effects | equal potencies | surpassing (Z)-endoxifen | greater activity than endoxifen | lower activity against T47D cells than endoxifen | – | – | – | – | –
2 | CC/C(=C(/c1ccc(O)cc1)c1ccc(OCC[N+](C)(C)C)cc1)c1ccccc1 [Compound 5b] | – | slightly lower cell cycle inhibition activity than endoxifen | – | – | – | – | equal potencies | surpassing (Z)-endoxifen | – | – | – | – | – | – | –
3 | CC/C(=C(\c1ccc(O)cc1)c1ccc(OCCN(C)C(C)=O)cc1)c1ccccc1 [Compound 7a] | – | – | – | more effective | – | – | – | surpassing (Z)-endoxifen | – | – | strongest effects | closely resemble that of endoxifen | more effective | significantly induced | most potent

Reference: patent US20250241876A1, “ANTI-TUMOR COMPOUNDS AND METHODS OF USE THEREOF AND SYNTHESIS THEREOF” (Atossa Therapeutics, Inc., priority 2023, published 2025)
